Here are results for 1 compound from patent US20070161542A1, “Ptb1b photoprobes” (priority 2003, published 2007).

The experiment deals with T1, purified Flag-PTP1B (Homo sapiens, UniProt P18031).
T1 construct: Flag-PTP1B (residues 1-320 as a flag fusion); made in house
T1 sequence (P18031 1-320): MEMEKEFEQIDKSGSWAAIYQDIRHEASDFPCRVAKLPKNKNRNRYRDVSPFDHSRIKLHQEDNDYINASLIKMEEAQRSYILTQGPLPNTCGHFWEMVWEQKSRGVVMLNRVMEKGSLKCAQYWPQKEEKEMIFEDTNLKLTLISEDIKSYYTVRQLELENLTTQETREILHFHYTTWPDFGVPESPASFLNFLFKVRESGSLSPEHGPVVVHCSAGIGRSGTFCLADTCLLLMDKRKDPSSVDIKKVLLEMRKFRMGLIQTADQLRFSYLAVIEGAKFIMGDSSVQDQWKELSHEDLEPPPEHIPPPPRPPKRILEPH
The experiment can be described thus: Photolabeling of purified enzyme using radioactive photoprobes. Type of experiment: binding. As for the experimental part:
All photolabeling experiments with purified enzymes or SF9 cell lysate overexpressing PTP1B were conducted in 96-well polystyrene plates in 50 μl BisTris buffer (50 mM BisTris pH 6.3, 2 mM EDTA, 1 mM DMH) containing enzyme (in BisTris buffer with 20% glycerol, 0.01% Triton X-100) or lysate and Example 9 (in water) or Example 1 (in water) at various concentrations and shaken for 1 min at room temperature. For competition studies, BzN-EJJ-AMIDE at various concentrations was added prior to the addition of the probes. The samples were then placed on ice for 5 min and irradiated with the 40 watt lamp at the standard 10 cm distance for 15 minutes. […] Autoradiography of the dried, coommassie-stained gel was done using Phosphorimaging (Molecular Devices) or by x-ray film (BioMax MS with intensifier screen, Kodak) and quantified by densitometry.
To study the labeling of PTP1B under physiological concentrations that exist in cells and tissues, ^125I -radiolabeled versions of Examples 9 and 1 were synthesized. […] The labeled enzyme was detected by phosphorimage (Molecular Devices) or x-ray film (BioMax MS with intensifier screen) from a SDS-PAGE gel after electrophoresis. From a titration of the purified PTP1B and probe, a detection limit for the two probes of Examples 9 and 1 were determined to be about 5 and 0.2 nM respectively, as detected by phosphorimaging. […]

In the case of `NC(=O)[C@H](Cc1ccc(C(F)(F)P(=O)(O)O)cc1)NC(=O)[C@H](Cc1ccc(C(F)(F)P(=O)(O)O)cc1)NC(=O)c1cc(I)cc(C2(C(F)(F)F)N=N2)c1` [Example 9, 4-(Difluoro(phosphono)methyl)-N-(3-iodo-5-(3-(trifluoromethyl)-3H-diaziren-3-yl)benzoyl)-L-phenylalanyl-4-(difluoro(phosphono)methyl)-L-phenylalaninamide], the efficiency of labeling (7 nM probe, purified Flag-PTP1B, vs probe alone after gel electrophoresis) amounted to 9%. Besides, the “detection limit of labeled PTP1B” value (125I-radiolabeled probe, purified PTP1B, phosphorimaging) is “about 5 nM”.
